Experiments:
B16 melanoma cells = assay: B16 melanoma cell growth in culture (MTT assay); assay type: cell-based, mouse; details: 6 days; FIG. 13C
Description: Data represent mean±SD of triplicate samples. […] Tumor volumes were recorded as indicated. C, Athymic nude mice bearing 4-day-established B16 tumors were subjected to differential treatments as in B. Tumor volumes were recorded as indicated.
L5, L6 and L6 analogs (Chembridge), mouse IFNγ ELISPOT Kit (R & D System) and antibody against pLck-pY394 or pERK1/2 (Cell Signaling) were purchased from commercial sources. Human Jurkat T cell line and murine B16 melanoma cell line (ATCC) and other cancer cell lines were maintained in […] culture medium supplemented with 10% fetal calf serum (FCS). The effects of chemical compounds on cancer cell growth in culture were quantified by MTT assays following our established procedures.

mouse splenocytes = assay: induction of IFNγ+ cells in mouse splenocytes in vitro (ELISPOT); assay type: cell-based; details: 1 μg/ml; FIG. 11
Description: The splenocytes were cultured in RPMI 1640 medium supplemented with 10% FCS in the absence or presence of designated agents for 16 hrs in flat-bottom 96-well plates coated with a monoclonal antibody specific for mouse IFNγ (mouse IFNγ ELISPOT Kit, R & D System). The plates were then processed for in situ detection of IFNγ+ cells by ELISA following the manufacturer's procedure. Scanning and counting of IFNγ+ cells in the plates were accomplished using an automatic ELISPOT reader with Immunospot2 software (Cellular Technology Ltd). Mouse splenocytes were also untreated or treated with agents for 16 hrs in culture dishes and then stained with appropriate isotype control antibodies or FICT-labeled anti-CD3 monoclonal antibody (BD) plus PE-labeled monoclonal antibody (BD) for intracellular IFNγ following established procedures. The stained samples were washed 3 times, re-suspended in 200 μl of 1% para-formaldehyde solution and analyzed (20,000 cells/sample) using a BD FACS Caliburs cytometer and WinList software.
The splenocytes were cultured in RPMI 1640 medium supplemented with 10% FCS in the absence or presence of designated agents for 16 hrs in flat-bottom 96-well plates coated with a monoclonal antibody specific for mouse IFNγ (mouse IFNγ ELISPOT Kit, R & D System). The plates were then processed for in situ detection of IFNγ+ cells by ELISA following the manufacturer's procedure. Scanning and counting of IFNγ+ cells in the plates were accomplished using an automatic ELISPOT reader with Immunospot2 software (Cellular Technology Ltd).

recombinant SHP-1 = target: T1, recombinant SHP-1 (Homo sapiens, UniProt P29350); assay: rapid in vitro SHP-1 PTPase assay (DIFMUP fluorescence substrate); assay type: biochemical; details: for inhibition of phosphatase activity of recombinant SHP-1: L5 and analogs, 1 μg/well, FIG. 12A
T1 construct: Recombinant protein of SHP-1 PTPase catalytic domain was described
T1 sequence (P29350 244-515 limits assumed): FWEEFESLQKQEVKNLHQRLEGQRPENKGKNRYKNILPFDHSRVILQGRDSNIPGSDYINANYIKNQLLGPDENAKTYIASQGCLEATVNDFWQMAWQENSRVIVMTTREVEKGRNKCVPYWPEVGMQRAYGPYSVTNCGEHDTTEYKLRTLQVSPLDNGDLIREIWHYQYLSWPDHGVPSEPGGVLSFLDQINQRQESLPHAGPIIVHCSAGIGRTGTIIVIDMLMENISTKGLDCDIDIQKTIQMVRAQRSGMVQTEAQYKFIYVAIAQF
Description: Recombinant protein of SHP-1 PTPase catalytic domain was described and stored in Tris buffer (25 mM Tris, pH7.5, 1 mM EDTA, 2 μM 2-ME, 25% glycerol) at −80° C. Fluorescence substrate DIFMUP (6,8-difluoro-4 methylumbelliferyl phosphate) was purchased (Molecular Probes). SSG was reported previously (21-23) and stored at 4° C. in darkness prior to use. Human and mouse IFNγ ELISPOT Kit (R & D System), CD4^+ Cell Intracellular IFNγ Detection Kit (BD Bioscience) and CD8^+ Cell Intracellular IFNγ Detection Kit (BD Bioscience) were purchased from commercial sources. Human Jurkat T cell line (26) and murine B16 melanoma cell line (ATCC) were maintained in […] culture medium supplemented with 10% fetal calf serum (FCS). Antibodies against pLck-pY394 (Cell Signaling), pLck-pY505 (Cell Signaling), pZap70 (pY319, BD Biosciences), pSlp76 (pY128, BD Biosciences) and pLat (pY226, BD Biosciences) were purchased from commercial sources.
A rapid SHP-1 PTPase assay was developed for screening the compounds in a commercial library of 34,000 drug-like small chemicals (Chembridge, Mass.). Briefly, compounds of the library (1 μg/well in […]) were placed in 96-well plates (Falcon, 353072) and mixed with recombinant SHP-1 protein (0.1 μg/well) in […] of HEPES buffer (50 mM HEPS, pH 7.5, 150 mM NaCl, 1 mM EDTA, 0.2 mM DTT and 0.1 mg/ml BSA). The plates were incubated at room temperature for 10 minutes prior to the addition of fluorescence substrate DIFMUP (40 μM stock in HEPES buffer, 10 μl/well) to initiate PTPase reaction. Upon completion of PTPase reaction at room temperature for 1 hr in darkness, fluorescence signal of individual wells were recorded using a Vector^2 Multilabel Counter (Vector, CA). They were compared to that of control SHP-1 PTPase reaction (˜10,000 units of fluorescence signal) in the absence of any compound (100%) for calculating relative SHP-1 inhibition induced by the compounds after subtracting the background signal (˜500 units of fluorescence signal) of the substrate.
To evaluate their SHP-1 inhibitory activity, the analogs (1 μg/well in 0.2 μl DMSO) were aliquot individually to 96-well plates (Falcon, 353072) and mixed with recombinant SHP-1 protein (0.1 μg/well) in 90 μl of HEPES buffer (50 mM HEPS, pH 7.5, 150 mM NaCl, 1 mM EDTA, 0.2 mM DTT and 0.1 mg/ml BSA). The plates were incubated at room temperature for 10 minutes prior to the addition of fluorescence substrate DIFMUP (40 μM stock in HEPES buffer, 10 μl/well) to initiate PTPase reaction. Upon completion of PTPase reaction at room temperature for 1 hr in darkness, fluorescence signal of individual wells were recorded using a Vector^2 Multilabel Counter (Vector, CA). […]

[1] = system: CD3+ and CD3- IFNγ+ splenocytes; assay: spleno-IFNγ+ cells in B16 tumor mice (CD3/intracellular IFNγ FACS); assay type: in vivo, mouse; details: 1 mg/kg oral, day 22
Description: Splenocytes from mice untreated or treated with L5a2 were stained with appropriate isotype control antibodies or FICT-labeled anti-CD3 monoclonal antibody (BD) plus PE-labeled monoclonal antibody (BD) for intracellular IFNγ following established procedures. The stained samples were washed 3 times, re-suspended in 200 μl of 1% para-formaldehyde solution and analyzed (20,000 cells/sample) using a BD FACS Caliburs cytometer and FlowJoe software.
To gain further insights into the mechanism of action in L5a2 in vivo, spleens were harvested from the B16 tumor mice in the control and the L5a2-treated groups (FIG. 13A) on day 22 to assess whether L5a2 induced IFNγ+ cells in the tumor-bearing mice. It was also determined whether the induced-IFNγ+ cells were of CD3+ T lymphocytes, which were activated TH1 critical for anti-tumor immunity. Splenocytes were prepared and co-stained for intracellular IFNγ and the T cell surface marker CD3 for quantification of IFNγ+ T cells by flow cytometry.

SHP-2 = target: T2, SHP-2 (Homo sapiens, UniProt Q06124); assay: SHP-2 inhibition by SSG (applicant's earlier studies); details: recombinant and intracellular SHP-2
T2 sequence (Q06124 1-593): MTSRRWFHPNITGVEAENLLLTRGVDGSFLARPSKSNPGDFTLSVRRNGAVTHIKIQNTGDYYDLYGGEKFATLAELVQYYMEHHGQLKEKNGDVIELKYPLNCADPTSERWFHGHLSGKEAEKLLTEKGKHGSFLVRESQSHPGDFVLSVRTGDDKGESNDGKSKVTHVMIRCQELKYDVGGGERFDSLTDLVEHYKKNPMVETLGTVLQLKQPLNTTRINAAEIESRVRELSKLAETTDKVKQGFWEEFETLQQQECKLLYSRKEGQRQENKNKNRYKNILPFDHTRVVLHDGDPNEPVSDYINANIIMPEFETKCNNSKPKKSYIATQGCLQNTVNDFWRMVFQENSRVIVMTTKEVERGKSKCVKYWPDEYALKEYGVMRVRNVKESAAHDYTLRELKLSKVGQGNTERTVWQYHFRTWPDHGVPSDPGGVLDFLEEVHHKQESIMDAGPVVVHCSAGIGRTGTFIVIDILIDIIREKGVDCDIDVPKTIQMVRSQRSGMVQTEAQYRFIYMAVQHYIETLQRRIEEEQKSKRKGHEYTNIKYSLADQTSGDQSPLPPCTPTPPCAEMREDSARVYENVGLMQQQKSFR

intracellular SHP-1 = target: T3, intracellular SHP-1 (Homo sapiens, UniProt P29350); assay: tyrosine phosphorylation of SHP-1 substrates in Jurkat cells (SDS-PAGE/Western blotting, densitometry); assay type: cell-based
T3 construct: endogenous in cells; host or cells: Jurkat
T3 sequence (P29350 whole entry): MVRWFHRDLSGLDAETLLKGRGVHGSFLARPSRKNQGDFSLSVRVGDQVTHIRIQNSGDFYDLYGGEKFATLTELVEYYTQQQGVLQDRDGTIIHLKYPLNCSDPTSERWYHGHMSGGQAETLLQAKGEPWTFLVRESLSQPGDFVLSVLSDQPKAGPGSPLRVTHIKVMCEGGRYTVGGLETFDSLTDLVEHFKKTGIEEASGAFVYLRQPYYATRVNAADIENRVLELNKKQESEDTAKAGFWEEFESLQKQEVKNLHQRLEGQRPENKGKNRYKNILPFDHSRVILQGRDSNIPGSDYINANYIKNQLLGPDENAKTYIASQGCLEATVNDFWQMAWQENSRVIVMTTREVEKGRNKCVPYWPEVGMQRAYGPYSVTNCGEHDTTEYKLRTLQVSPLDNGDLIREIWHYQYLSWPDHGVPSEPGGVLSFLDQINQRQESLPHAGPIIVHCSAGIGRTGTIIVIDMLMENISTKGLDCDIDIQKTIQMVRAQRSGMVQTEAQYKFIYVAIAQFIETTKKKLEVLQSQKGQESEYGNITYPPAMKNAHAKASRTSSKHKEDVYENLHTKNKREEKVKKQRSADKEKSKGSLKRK
Description: (§1) Jurkat cells in culture medium (3×10^6 cells/ml, 1 ml/tube) were treated with agents for designated times at room temperature. After brief centrifuging in a microfuge (4,000 rpm, 2 min), the cell pellet was lysed on ice for 30 min in 1001 of cold lysis buffer (1% NP40, 50 mM Tris, pH 7.4, 150 mM NaCl, 20 mM NaF, 0.2 mM Na3VO4 and 1 mM Na3MO4) containing a cocktail of proteinase inhibitors (Sigma, 1 tablet/10 ml). The lysates were cleared by centrifuging (14,000 rpm, 10 min) in a microfuge at 4° C. to remove insoluble parts, mixed with equal volume of 2×SDS-PAGE sample buffer, boiled for 5 min and analyzed (˜3×10^5 cells/well) by SDS-PAGE/Western blotting. Relative intensities of phosphotyrosine bands were quantified through densitometry analysis.
as §1, with “100 μl” for “1001”, “blotting as described previously (23, 24).” for “blotting.”
as §1, with “100 μl” for “1001”, “blotting as described previously (17, 18).” for “blotting.”

Description for B16 melanoma tumors: Tumor volume (n=5) was measured during the study period and calculated using the formula for a prolate spheroid. Student's t test was used for assessing the significance of tumor volume differences among differential treatment groups. Mouse viability (daily) and body weights (weekly) were also recorded during the study period. Major internal organs of the mice were inspected visually upon their termination at the end of the experiment.
To assess anti-tumor activity, C57BL/6J mice (˜8-week old, female, Taconic Farms, Germantown, N.Y.) were inoculated (s. c.) at the flanks with B16 melanoma cells (4×10^4 cells/site). […] Tumor volume (n=5) was measured during the study period and calculated using the formula for a prolate spheroid. Student's t test was used for assessing the significance of tumor volume differences among differential treatment groups. Mouse viability (daily) and body weights (weekly) were also recorded during the study period. Major internal organs of the mice were inspected visually upon their termination at the end of the experiment.

Structure (SMILES)	inhibition of B16 melanoma cells in culture (B16 melanoma cells)	induction of IFNγ+ cells (mouse splenocytes) [fold]	B16 tumor growth inhibition versus control (B16 melanoma tumors; 1 mg/kg/daily, M-F/wk, oral, day 22) [%]	tolerance of treated tumor mice (behavior, gross anatomy) (B16 melanoma tumors; mouse, in vivo)	inhibition of phosphatase activity of recombinant SHP-1 (recombinant SHP-1)	increase of CD3+ IFNγ+ cells [1] [fold]	increase of CD3- IFNγ+ cells [1] [fold]	level at which SHP-2 is inhibited (SHP-2) [µg/mL]	level at which SHP-1 is inhibited (recombinant SHP-1; recombinant and intracellular SHP-1) [µg/mL]	pLck-pY394 induction (intracellular SHP-1; 10 μg/ml, 10 min) [fold]	dose effective in inducing pLck-pY394 (lowest / only effective dose) (intracellular SHP-1; 10 min treatment) [μg/ml]	level active against intracellular SHP-1 (intracellular SHP-1; Jurkat T cells, molar equivalent) [µM]	pLck-pY394 induction (intracellular SHP-1; lower (1 μg/ml) or higher (100 μg/ml) doses)
O=C1C=CC(=O)C(c2cccc(Cl)c2)=C1 [L5a2]	failed to inhibit	~20	~75	no apparent abnormality	completely or almost completely inhibited	~4.5	1.3	–	–	–	–	–	–
O=C1C=C(c2ccccc2)C(=O)c2ccccc21 [L5a3]	–	–	–	–	~80%	–	–	–	–	–	–	–	–
O.O.O.O.O.O.O.O.O.O=C([O-])[C@@H]1[O][Sb]2([O-])([O][Sb]34([OH])[O][C@H]([C@H](O)CO)[C@H]([O]3)[C@H](C(=O)[O-])[O]4)[O][C@H]([C@H](O)CO)[C@@H]1[O]2.[Na+].[Na+].[Na+] [SSG, Sodium Stibogluconate, reference compound]	–	–	–	–	–	–	–	10	10	~2	10	~14	failed
